Broadly, the pIC50 is −log10 of the IC50, conventionally taken in molar units. A lower pIC50 goes with a high IC50.

pIC50: −log10 of the molar value.

For the first assay, the system named is Her2 receptor expression at the surface of SKBr3 cells. The assay can be described thus: phenotypic SKBr3/HER2 cell test (Her2 surface expression by flow cytometry). The note with it: 24 h incubation, inhibition of Her2 expression. The assay is classed as cell-based. On the procedure: The cellular activity of the compounds can in particular be evaluated by means of the phenotypic “SKBr3/HER2” cell test described below:
The SKBr3 […] adenocarcinoma cells, overexpressing the Her2 tyrosine kinase receptor, originate from the ATCC (HTB-30) and are cultured in McCoy's 5A medium supplemented with 10% FBS and 1% L-glutamine.
The cells are seeded in 12-well plates at a proportion of 125 000 cells per well in 1 ml of complete medium. The following day, the products are added at varying concentrations. After incubation for 24 h, the cells are trypsinized, washed with PBS and incubated with 100 ng of anti-Her2 antibody coupled to PE (Phycoerythrin) (BD 340552) for 30 minutes at 4° C. in the dark. The fluorescence due to the expression of the Her2 receptor at the surface of the cells is then read using a FACS Calibur flow cytometer (Becton-Dickinson). The percentage inhibition of Her2 expression as a function of the concentrations of product tested is fitted by the nonlinear regression technique (XLfit, equation 205) in order to measure an IC50 for each product.
On the technique in general: A flow cytometer gives signals particle by particle.
`NC(=O)c1ccc(-n2c3ccccc3c3c(-c4nc5cc(F)ccc5[nH]4)cccc32)cc1N[C@H]1CCCC[C@@H]1CO` (single isomer, unassigned) [Example 131] showed a pIC50 of over 6.00.

Still in this assay, the particulars now being: Homo sapiens, SK-BR-3, 24 h incubation, inhibition of Her2 expression.
Turning to `NC(=O)c1ccc(-n2c3ccccc3c3c(-c4nc5ccc(F)cc5[nH]4)cccc32)cc1NC[C@@H]1CCCC[C@@H]1O` (racemic) [Example 93], the pIC50 is over 6.00. As for `NC(=O)c1ccc(-n2c3ccccc3c3c(-c4cnc5ccccc5c4)cccc32)cc1NC[C@@H]1CCCC[C@@H]1O` (racemic) [Example 95], the negative-log IC50 (pIC50) was over 6.00. Still for that read-out and setting: then `NC(=O)c1ccc(-n2c3ccccc3c3c(-c4nc5ccc(F)cc5[nH]4)cccc32)cc1N[C@H]1CCCC[C@H]1CO` (racemic) [Example 96], with over 6.00; and `NC(=O)c1ccc(-n2c3ccccc3c3c(-c4nc5ccc(F)cc5[nH]4)cccc32)cc1N[C@H]1CCCC[C@@H]1CO` (racemic) [Example 97], with over 6.00; and `NC(=O)c1ccc(-n2c3ccccc3c3c(-c4cnc5ccccc5c4)cccc32)cc1N[C@H]1CCCC[C@@H]1CO` (racemic) [Example 100, 2-[1(R,S),2(R,S)-2-hydroxymethyl-cyclohexyl-1-amino]-4-[4-(quinolin-3-2-yl)-9H-carbazol-9-yl]benzamide], with over 6.00. Turning to `NC(=O)c1ccc(-n2c3ccccc3c3c(-c4cnc5ccccc5c4)cccc32)cc1N[C@H]1CCCC[C@H]1CO` (racemic) [Example 101, 2-[1(S,R),2(R,S)-2-hydroxymethylcyclohexyl-1-amino]-4-[4-(quinolin-3-2-yl)-9H-carbazol-9-yl]benzamide], the negative-log IC50 (pIC50) was over 6.00. Same read-out and setting: as for `NC(=O)c1ccc(-n2c3ccccc3c3c(-c4nc5ccc(F)cc5[nH]4)cccc32)cc1N[C@H]1CCC[C@H]1CO` (racemic) [Example 118, 4-[4-(6-fluoro-1H-benzimidazol-2-yl)-9H-carbazol-9-yl]-2-[2(R,S)-hydroxymethylcyclopentan-1(S,R)-amino]benzamide], the figure is over 6.00. For the compound `NC(=O)c1ccc(-n2c3ccccc3c3c(-c4nc5cc(F)ccc5[nH]4)cccc32)cc1N[C@H]1CCCC[C@@H]1CO` (single isomer, unassigned) [Example 130], the pIC50 was over 6.00. Still for that read-out and setting: as for `COCCCOc1cc(-n2c3ccccc3c3c(-c4nc5ccc(F)cc5[nH]4)cccc32)ccc1C(N)=O` [Example 60, 4-[4-(6-fluoro-1H-benzimidazol-2-yl)-9H-carbazol-9-yl]-2-(3-methoxypropoxy)benzamide], the figure is 5.00 to 6.00. The same measure, in the same setting: then `CN1CCC(O)(CCNc2cc(-n3c4ccccc4c4c(-c5nc6ccc(F)cc6[nH]5)cccc43)ccc2C(N)=O)CC1` [Example 70, 4-[4-(6-fluoro-1H-benzimidazol-2-yl)-9H-carbazol-9-yl]-2-[2-(4-hydroxy-1-methylpiperidin-4-yl)ethylamino]benzamide], with over 6.00.

`NC(=O)c1ccc(-n2c3ccccc3c3c(-c4nc5ccc(F)cc5[nH]4)cccc32)cc1NCCC1(O)CCCC1` [Example 71, 4-[4-(6-fluoro-1H-benzimidazol-2-yl)-9H-carbazol-9-yl]-2-[2-(1-hydroxycyclopentyl)ethylamino]benzamide] showed a pIC50 of over 6.00.

For `CC(C)(O)CCNc1cc(-n2c3ccccc3c3c(-c4cnc5ccccc5c4)cccc32)ccc1C(N)=O` [Example 72, 2-(3-hydroxy-3-methylbutylamino)-4-[4-(quinolin-3-yl)-9H-carbazol-9-yl]benzamide], the pIC50 was over 6.00. The same measure, in the same setting: then `NC(=O)c1ccc(-n2c3ccccc3c3c(-c4cncc(O)c4)cccc32)cc1N[C@H]1CC[C@H](O)CC1` [Example 73, 2-[(4-trans-hydroxycyclohexyl)amino]-4-[4-(5-hydroxypyridin-3-yl)-9H-carbazol-9-yl]benzamide], with over 6.00; and `NC(=O)c1ccc(-n2c3ccccc3c3c(-c4ccc(C(F)(F)F)nc4)cccc32)cc1N[C@H]1CC[C@H](O)CC1` [Example 74, 2-[(4-trans-hydroxycyclohexyl)amino]-4-{4-[6-(trifluoromethyl)pyridin-3-yl]-9H-carbazol-9-yl}benzamide], with 5.00 to 6.00; and `NC(=O)c1ccc(-n2c3ccccc3c3c(-c4nc5ccc(F)cc5[nH]4)cccc32)cc1NCCCF` [Example 75, 4-[4-(6-fluoro-1H-benzimidazol-2-yl)-9H-carbazol-9-yl]-2-(3-fluoropropylamino)benzamide], with over 6.00. On the same count and under the same terms, as for `NC(=O)c1ccc(-n2c3ccccc3c3c(-c4cnc5ccccc5c4)cccc32)cc1NCCCF` [Example 76, 2-(3-fluoropropylamino)-4-[4-(quinolin-3-yl)-9H-carbazol-9-yl]benzamide], the figure is over 6.00; as for `NC(=O)c1ccc(-n2c3ccccc3c3c(-c4cnc5ccccc5c4)cccc32)cc1NCCF` [Example 77, 2-(2-fluoroethylamino)-4-[4-(quinolin-3-yl)-9H-carbazol-9-yl]benzamide], over 6.00. On the same count and under the same terms, then `NC(=O)c1ccc(-n2c3ccccc3c3c(-c4cnc5ccccc5c4)cccc32)cn1` [Example 78, 5-[4-(quinolin-3-yl)-9H-carbazol-9-yl]pyridin-2-amide], with 5.00 to 6.00; and `NC(=O)c1ccc(-n2c3ccccc3c3c(-c4nc5ccc(F)cc5[nH]4)cccc32)cc1NCCc1ccccn1` [Example 79, 4-[4-(6-fluoro-1H-benzimidazol-2-yl)-9H-carbazol-9-yl]-2-[2-(pyridin-2-yl)ethylamino]benzamide], with over 6.00; and `NC(=O)c1ccc(-n2c3ccccc3c3c(-c4cnc5ccccc5c4)cccc32)cc1NCCc1ccccn1` [Example 80, 4-[4-(quinolin-3-yl)-9H-carbazol-9-yl]-2-[2-(pyridin-2-yl)ethylamino]benzamide], with over 6.00. Regarding `NC(=O)c1ccc(-n2c3ccccc3c3c(-c4nc5ccc(F)cc5[nH]4)cccc32)cc1NCc1ccccn1` [Example 81, 4-[4-(6-fluoro-1H-benzimidazol-2-yl)-9H-carbazol-9-yl]-2-[(pyridin-2-ylmethyl)amino]benzamide], the pIC50 was over 6.00. Same read-out and setting: as for `NC(=O)c1ccc(-n2c3ccccc3c3c(-c4nc5ccc(F)cc5[nH]4)cccc32)cc1NCCn1ccnc1` [Example 82, 4-[4-(6-fluoro-1H-benzimidazol-2-yl)-9H-carbazol-9-yl]-2-[2-(1H-imidazol-1-yl]ethylamino]benzamide], the figure is over 6.00; as for `CC1(C)CC(Nc2cc(-n3c4ccccc4c4c(-c5nc6ccc(F)cc6[nH]5)cccc43)ccc2C(N)=O)CC(C)(C)N1` [Example 83], over 6.00. For the compound `CC1(C)CC(Nc2cc(-n3c4ccccc4c4c(-c5cnc6ccccc6c5)cccc43)ccc2C(N)=O)CC(C)(C)N1` [Example 84, 4-[4-(quinolin-3-yl)-9H-carbazol-9-yl]-2-(2,2,6,6-tetramethyl-1H-piperidin-4-ylamino]benzamide], the negative logarithm of the IC50 (pIC50) was over 6.00. On the same count and under the same terms, as for `CN1C(C)(C)CC(Nc2cc(-n3c4ccccc4c4c(-c5nc6ccc(F)cc6[nH]5)cccc43)ccc2C(N)=O)CC1(C)C` [Example 85, 4-[4-(6-fluoro-1H-benzimidazol-2-yl)-9H-carbazol-9-yl]-2-(1,2,2,6,6-pentamethyl-1H-piperidin-4-ylamino]benzamide], the figure is over 6.00; as for `NC(=O)c1ccc(-n2c3ccccc3c3c(-c4cnc5ccccc5c4)cccc32)cc1NCc1ccccn1` [Example 86, 2-[(pyridin-2-ylmethyl)amino]-4-[4-(quinolin-3-yl)-9H-carbazol-9-yl]benzamide], over 6.00; as for `NC(=O)c1ccc(-n2c3ccccc3c3c(-c4cnc5ccccc5c4)cccc32)cc1NCCn1ccnc1` [Example 87, 2-[2-(1H-imidazol-1-yl)ethylamino]-4-[4-(quinolin-3-yl)-9H-carbazol-9-yl]benzamide], over 6.00. With `CN1C(C)(C)CC(Nc2cc(-n3c4ccccc4c4c(-c5cnc6ccccc6c5)cccc43)ccc2C(N)=O)CC1(C)C` [Example 88, (1,2,2,6,6-pentamethyl-1H-piperidin-4-ylamino]-4-[4-(quinolin-3-yl)-9H-carbazol-9-yl]-2-benzamide], the pIC50 was over 6.00. Still for that read-out and setting: as for `NC(=O)c1ccc(-n2c3ccccc3c3c(-c4nc5ccc(F)cc5[nH]4)cccc32)cc1NC1CCCC(O)C1` [Example 89, 4-[4-(6-fluoro-1H-benzimidazol-2-yl)-9H-carbazol-9-yl]-2-(3(R,S)-hydroxycyclohexyl-1(R,S)-amino)benzamide], the figure is over 6.00; as for `CC(C)(O)CNc1cc(-n2c3ccccc3c3c(-c4nc5ccc(F)cc5[nH]4)cccc32)ccc1C(N)=O` [Example 90, 4-[4-(6-fluoro-1H-benzimidazol-2-yl)-9H-carbazol-9-yl]-2-(2-hydroxy-2-methylpropylamino)benzamide], over 6.00; as for `CC(C)(O)CNc1cc(-n2c3ccccc3c3c(-c4cnc5ccccc5c4)cccc32)ccc1C(N)=O` [Example 91, (2-hydroxy-2-methylpropylamino)-4-[4-(quinolin-3-yl)-9H-carbazol-9-yl]-2-benzamide], over 6.00. Same read-out and setting: then `NC(=O)c1ccc(-n2c3ccccc3c3c(-c4nc5ccc(F)cc5[nH]4)cccc32)cc1NCc1cocn1` [Example 92, 4-[4-(6-fluoro-1H-benzimidazol-2-yl)-9H-carbazol-9-yl]-2-[(oxazol-4-ylmethyl)amino]benzamide], with over 6.00; and `NC(=O)c1ccc(-n2c3ccccc3c3c(-c4cnc5ccccc5c4)cccc32)cc1NCc1cocn1` [Example 94, 2-[(oxazol-4-ylmethyl)amino]-4-[4-(quinolin-3-yl)-9H-carbazol-9-yl]benzamide], with over 6.00.

The values are drawn from patent US8309721B2, “HSP90 inhibitory carbazole derivatives, compositions containing same and use thereof” (Sanofi, priority 2008, dated 2012).
